Data published in patent US20150004134A1, “TREATMENT OF CANCER WITH HETEROCYCLIC INHIBITORS OF GLUTAMINASE” (Calithera Biosciences, Inc., priority 2012, published 2015).
pIC50: −log10 of the molar value.

Tests used:
[1] = system: P493-6 (myc "on") cells; test: Cell Proliferation Assay; assay type: cell-based; conditions: P493-6, 72 h, read-out: Cell prolif P493 72 h IC50, P493 cells, 72 h
Summary of the method: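 Read-out: either Cell Titer Glo or Guava Viacount flow analysis after 72 h compound treatment of myc-on P493-6 cells (10,000/well, RPMI with 10% FBS) at 37 °C. DMSO held at 0.5% final.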

[2] = system: Caco-2 cell monolayers; test: Caco-2 Permeability Assay; assay type: in vitro ADME; conditions: for Permeability Classification: absorption potential
From the text: Caco-2 cells are commonly used in a confluent monolayer on a cell culture insert filter. When cultured in this format and under specific conditions, the cells become differentiated and polarized such that their phenotype, morphologically and functionally resembles the enterocytes lining the small intestine. The cell monolayer provides a physical and biochemical barrier to the passage of small molecules, and is widely used across the pharmaceutical industry as an in vitro model of the human small intestinal mucosa to predict the absorption of orally administered drugs (Hidalgo et al., Gastroenterology, 1989; Artursson, J. Pharm. Sci., 1990). The correlation between the in vitro apparent permeability (P ? app) across Caco-2 monolayers and the in vivo absorption is well established (Artursson et al., Biochem. Biophys. Res. Comm., 1991).
The present assay was used to determine the bidirectional permeability of the compounds of the invention through Caco-2 cell monolayers. Caco-2 cells were grown in confluent monolayers where the media of both the apical (A) and basolateral (B) sides were at pH 7.4. Compounds were dosed at 1 μM in the presence of 200 μM Lucifer Yellow, on the apical side (A→B) or the basolateral side (B→A) for assessment, in duplicate.
The absorption potential of compounds were classified as either Low (P-app <1×10^−6 CM/S) or High (P-app >1×10^−6 CM/S).

[3] = target: T1, recombinant form of Glutaminase 1 (GAC) (Homo sapiens, UniProt O94925); test: Recombinant Enzyme Assay - Time Dependence (60 min preincubation); assay type: biochemical; conditions: read-out: GAC Delta N2 IC50 60 min preinc
T1 sequence (O94925 137-598 isoform O94925-3 limits assumed): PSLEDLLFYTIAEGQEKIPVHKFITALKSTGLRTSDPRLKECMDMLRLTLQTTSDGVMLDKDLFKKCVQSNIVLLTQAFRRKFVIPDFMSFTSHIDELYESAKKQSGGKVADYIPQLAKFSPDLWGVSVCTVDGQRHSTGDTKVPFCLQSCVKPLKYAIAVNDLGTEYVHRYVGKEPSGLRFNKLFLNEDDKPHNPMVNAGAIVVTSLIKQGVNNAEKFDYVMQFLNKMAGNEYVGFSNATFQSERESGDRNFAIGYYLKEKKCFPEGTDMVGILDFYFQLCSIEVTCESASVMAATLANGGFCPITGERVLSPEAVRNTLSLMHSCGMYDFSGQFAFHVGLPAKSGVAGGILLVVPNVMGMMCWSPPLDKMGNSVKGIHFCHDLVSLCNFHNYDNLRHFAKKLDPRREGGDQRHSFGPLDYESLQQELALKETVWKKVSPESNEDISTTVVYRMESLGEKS
Summary of the method: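 Enzyme and compound preincubated 60 min at 20° C; reaction started with substrate buffer (50 mM Tris-HCl pH 8.0, 150 mM K2HPO4, 1 mM DTT, 20 mM L-glutamine, 2 mM NAD^+). NADH formation followed at 340 nm in kinetic mode for 15 min at 20° C; slopes (mAU/min) compared with DMSO and control-compound wells.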

Compound	pIC50 [1]	Significant Efflux [2]	Permeability Classification [2]	pIC50 [3]
CC(C)(C)OC(=O)NCc1cccc(CC(=O)Nc2nnc(CCCCc3ccc(NC(=O)Cc4ccccc4)nn3)s2)c1 [Compound 339]	8.05	Yes (efflux ratios being significant when greater than or equal to 3 when the Papp (B→A) was greater than or equal to 1×10^−6 cm/s)	High (High (P-app >1×10^−6 CM/S))	–
O=C(Cc1ccccc1)Nc1ccc(CCCCc2nnc(NC(=O)Cc3ccccn3)s2)nn1 [Compound 354]	7.33	Yes (efflux ratios being significant when greater than or equal to 3 when the Papp (B→A) was greater than or equal to 1×10^−6 cm/s)	High (High (P-app >1×10^−6 CM/S))	–
CC(C(=O)Nc1ccc(CCCCc2nnc(NC(=O)Cc3cccc(CNC(=O)OC(C)(C)C)c3)s2)nn1)c1ccccc1 (stereo not drawn) [Compound 436]	–	Yes (efflux ratios being significant when greater than or equal to 3 when the Papp (B→A) was greater than or equal to 1×10^−6 cm/s)	High (High (P-app >1×10^−6 CM/S))	–
O=C(Cc1cccc(OC(F)(F)F)c1)Nc1ccc(CCCCc2nnc(NC(=O)C(O)c3cccc(Cl)c3)s2)nn1 (stereo not drawn) [Compound 447]	–	Yes (efflux ratios being significant when greater than or equal to 3 when the Papp (B→A) was greater than or equal to 1×10^−6 cm/s)	High (High (P-app >1×10^−6 CM/S))	8.30
O=C(Cc1ccccc1Cl)Nc1ccc(CCCCc2nnc(NC(=O)Cc3ccccc3F)s2)nn1 [Compound 533]	–	Yes (efflux ratios being significant when greater than or equal to 3 when the Papp (B→A) was greater than or equal to 1×10^−6 cm/s)	High (High (P-app >1×10^−6 CM/S))	–
O=C(Cc1cccc(OC(F)(F)F)c1)Nc1ccc(CCCCc2nnc(NC(=O)Cc3ccccc3)s2)nn1 [Compound 585]	–	Yes (efflux ratios being significant when greater than or equal to 3 when the Papp (B→A) was greater than or equal to 1×10^−6 cm/s)	High (High (P-app >1×10^−6 CM/S))	8.22
CC(C(=O)Nc1nnc(CCCCc2ccc(NC(=O)Cc3ccccc3)nn2)s1)c1ccccc1 (stereo not drawn) [Compound 616]	–	Yes (efflux ratios being significant when greater than or equal to 3 when the Papp (B→A) was greater than or equal to 1×10^−6 cm/s)	High (High (P-app >1×10^−6 CM/S))	8.10
O=C(Cc1cccc(OC(F)(F)F)c1)Nc1ccc(CCCCc2nnc(NC(=O)Cc3cccc(OC(F)(F)F)c3)s2)nn1 [Compound 660]	–	Yes (efflux ratios being significant when greater than or equal to 3 when the Papp (B→A) was greater than or equal to 1×10^−6 cm/s)	Low (Low (P-app <1×10^−6 CM/S))	7.60
O=C(Cc1cccc(OC(F)(F)F)c1)Nc1ccc(CCCCc2nnc(NC(=O)Cc3ccccn3)s2)nn1 [Compound 670]	–	Yes (efflux ratios being significant when greater than or equal to 3 when the Papp (B→A) was greater than or equal to 1×10^−6 cm/s)	High (High (P-app >1×10^−6 CM/S))	–
O=C(Cc1cccc(OC(F)(F)F)c1)Nc1ccc(CCCCc2nnc(NC(=O)Cc3cccc(F)c3)s2)nn1 [Compound 679]	–	No	High (High (P-app >1×10^−6 CM/S))	–
O=C(Cc1cccc(OC(F)(F)F)c1)Nc1ccc(CCCCc2nnc(NC(=O)[C@@H](O)c3ccccc3)s2)nn1 [Compound 703]	–	Yes (efflux ratios being significant when greater than or equal to 3 when the Papp (B→A) was greater than or equal to 1×10^−6 cm/s)	High (High (P-app >1×10^−6 CM/S))	–
O=C(Cc1cccc(OC(F)(F)F)c1)Nc1ccc(CCCCc2nnc(NC(=O)[C@H](O)c3ccccc3)s2)nn1 [Compound 705]	–	Yes (efflux ratios being significant when greater than or equal to 3 when the Papp (B→A) was greater than or equal to 1×10^−6 cm/s)	High (High (P-app >1×10^−6 CM/S))	–
